Results on 18 compounds are retold here after EPA's ToxValDB 9.5.

Values after ≈ are worked out from the molar mass of the structure shown. Values joined by “and” are separate entries in the source; they are usually repeats but may differ in a detail not shown here. Equal values may be shown once.

The test system of one data set is Pontoscolex corethrurus. The settings on record: acute; mortality.
For data set [1] the following is noted: for NOAEL: subchronic.
A further data set concerns Rattus norvegicus. The settings on record: for LD50: acute, mortality.
The test system of the next data set is Oryctolagus sp. The note with it: reproduction developmental.
Another data set deals with Daphnia magna. The settings on record: for LC50: acute, mortality.
In the next data set the test system is Plant. The settings on record: not reported; seedling emergence.
The next data set has as its system Pleurozium sp. The note with it: acute; duration: 72 hours; growth.
Another data set has as its system Tagia sp. The note with it: for LC50: acute.
The test system of a further data set is Oncorhynchus mykiss. The settings on record: acute; for LC50: duration: 96 hours, mortality.
The next data set deals with Bovidae. The note with it: subchronic; duration: 56 days; oral; diet; F; no effects.
In another data set the test system is Apis mellifera. The note with it: acute, mortality.
The test system of another data set is Cyprinus carpio. The settings on record: acute; duration: 96 hours; mortality.
A further data set has as its system Homo sapiens. The settings on record: clinical; duration: 15 days; inhalation; clinical signs.
Another data set concerns Lymnaea stagnalis. The settings on record: chronic/long-term; duration: 50 days.
A further data set deals with Bibionidae. The settings on record: chronic/long-term; duration: 28 days; seedling emergence.
The next data set has as its system Gallus gallus. The note with it: for LEL: subchronic, oral, diet, M/F, no effects.
A further data set relates to Sus scrofa. The settings on record: oral, diet, Not specified, no effects.
The test system of another data set is Typhlodromus pyri. The experiment in a line: LR50; higher = less toxic. The settings on record: acute; duration: 7 days; mortality.
In the next data set the test system is Ovis sp. The settings on record: subchronic; duration: 77 days; oral; diet; body weight.

In the data set with Pontoscolex corethrurus, `CC(=O)OC(C)c1ccccc1` (racemic) [(+/-)-alpha-Methylbenzyl acetate] yielded an LC50 of 1480 mg/kg.

For `CCOCCC(OCC)OCC` [1,1,3-Triethoxypropane], the LOAEL – broadly, the lowest tested level that showed an adverse finding – in data set [1] (repeat dose other) came out at 9.5 mg/kg-day; in the data set with Rattus norvegicus (subchronic, M, hematological), 69 mg/kg-day.

In the case of `O=C(O)Cn1cncn1` [1,2,4-Triazole-1-acetic acid], the NOAEL (commonly the highest dose or exposure tested at which no adverse effect was seen) with Oryctolagus sp. (body weight) stood at 100 mg/kg-day; with Rattus norvegicus (reproduction developmental, body weight), 100 mg/kg-day.

Turning to `CCCCCCC(C=O)=Cc1ccccc1` [2-(Phenylmethylene)octanal], the LC50 in data set [1] (acute, mortality) stood at 0.2 mg/L (≈ 0.925 µM). Moreover, in the data set on Rattus norvegicus (chronic, duration: 14 weeks, oral, diet, M/F, organ weight), the NOAEL was 30 mg/kg-day.

`O=C1CCSC1` [3(2H)-Thiophenone, dihydro-] gave an LC50 in the data set with Pontoscolex corethrurus of 305 mg/kg.

Regarding `CCC(C)c1nccnc1OC` (stereo not drawn) [3-sec-Butyl-2-methoxypyrazine], the LC50 in the data set with Daphnia magna was found to be 14 mg/L (≈ 84.2 µM); in the data set on Pontoscolex corethrurus it was 235 mg/kg.

For `O=C(Nc1ccc([N+](=O)[O-])cc1)Nc1ccc([N+](=O)[O-])cc1` [4,4'-Dinitrodiphenylurea], the figures for the NOEC with Plant and in the data set with Pleurozium sp. were 2.9 mg/kg and 0.042 µg/L, respectively. In addition, in the data set with Tagia sp. (duration: 14 days, no effects), the LC50 is > 1000 mg/kg.

The compound `CC(=O)CCc1ccc(O)cc1` [4-(4-Hydroxyphenyl)butan-2-one] displayed an NOAEL in data set [1] (duration: 13 weeks) of 280 mg/kg-day. Besides, the LC50 was 16.9 mg/L (≈ 103 µM) in the data set on Daphnia magna and 248 mg/kg in the data set on Pontoscolex corethrurus.

In the data set with Oncorhynchus mykiss, `CC(C)=CCC/C(C)=C/CO` [(2E)-3,7-Dimethyl-2,6-octadien-1-ol] showed an LC50 of 11.6 mg/L (≈ 75.2 µM). Also, in the data set on Rattus norvegicus (oral), the LD50 was found to be 3600 mg/kg-day.

On to `C[C@H]1O[C@H](O[C@H]2[C@H](O)[C@@H](O)[C@@H](O[C@@H]([C@H](O)[C@@H](O)C=O)[C@H](O)CO)O[C@@H]2CO)[C@H](O)[C@@H](O)[C@@H]1N[C@H]1C=C(CO)[C@@H](O)[C@H](O)[C@H]1O` [Acarbose], for which the LEL in the data set on Bovidae was determined as 350 mg/kg-day.

Turning to `CC(=O)O` [Acetic acid], the LD50 with Apis mellifera (dermal) is > 96 µg/piece; in the data set with Apis mellifera (oral, unspecified), > 110 µg/piece. Also, the LC50 in the data set on Cyprinus carpio was 43.8 mg/L (≈ 729 µM); in the data set with Tagia sp. (mortality), > 1000 mg/kg. The compound further displayed an NOEC in the data set on Daphnia magna (chronic/long-term, duration: 21 days, reproduction) of 22.7 mg/L. The same compound came in with an NOAEC with Homo sapiens of 10 mg/m3. Moreover, the NOAEL in the data set with Oryctolagus sp. (oral, mortality) came out at 16 mg/kg-day.

Compound `O=[N+]([O-])[O-].O=[N+]([O-])[O-].O=[N+]([O-])[O-].[Al+3]` [Aluminum nitrate] yielded an NOEC with Lymnaea stagnalis of 0.1 mg/L.

Take `CCCc1ncc(C[n+]2ccccc2C)c(N)n1.Cl.[Cl-]` [Amprolium hydrochloride]: the NOEC in the data set with Bibionidae was determined as 101 mg/kg; with Tagia sp. (reproductive, reproduction) it was 100 mg/kg. In addition, the LEL with Gallus gallus (duration: 43 days, Chicken) stood at 625 mg/kg-day.

For `CC(C)[C@H]1OC(=O)[C@H](Cc2ccccc2)N(C)C(=O)[C@@H](C(C)C)OC(=O)[C@H](Cc2ccccc2)N(C)C(=O)[C@@H](C(C)C)OC(=O)[C@H](Cc2ccccc2)N(C)C1=O` [Beauvericin], the NOAEL with Gallus gallus (repeat dose other) is 1.22 mg/kg-day and 0.536 mg/kg-day; in the data set with Meleagris sp. (not reported), 136 µg/kg-day.

For `Cc1oc2ccccc2c1C` [Benzofuran, 2,3-dimethyl-], the NOAEL in data set [1] (duration: 90 days) was 0.6 mg/kg-day; in the data set with Rattus norvegicus (subchronic, duration: 90 days, oral), 0.6 mg/kg-day.

For the compound `C[Se]CCC(O)C(=O)O` (stereo not drawn) [Butanoic acid, 2-hydroxy-4-(methylseleno)-], the LEL is 5 mg/kg-day with Gallus gallus (duration: 35 days); 5 mg/kg-day in the data set on Gallus gallus (duration: 42 days); 5 mg/kg in the data set with Meleagris sp. (subchronic, duration: 42 days, oral, feed, M/F, But big 6, no effects); 5 mg/kg-day in the data set with Sus scrofa (subchronic, duration: 42 days, M/F).

For `[Ca+2].[S-]SSS[S-]` [Calcium polysulfide], the LD50 is > 69.8 µg/piece in the data set on Apis mellifera (duration: 48 hours, oral, unspecified) and 1340 mg/kg-day in the data set on Rattus norvegicus (oral). Also, the results for the LC50 in the data set with Oncorhynchus mykiss and in the data set with Tagia sp. (mortality) were 2.67 mg/L and > 1000 mg/kg, respectively. In the data set on Rattus norvegicus (subchronic, duration: 90 days, oral, clinical chemistry), this compound gave an NOAEL of 150 mg/kg-day. The compound further gave an LR50 in the data set with Typhlodromus pyri of 113 g/ha.

Regarding `O=c1[nH]c(=O)[nH]c(=O)[nH]1` [Cyanuric acid], the LEL with Oncorhynchus mykiss (duration: 3 days, oral, capsule, no effects) came out at 390 mg/kg-day; with Sus scrofa (acute, duration: 3 days), 400 mg/kg-day. In addition, the NOAEL in the data set with Ovis sp. was 600 mg/kg-day; in the data set with Rattus norvegicus (chronic, duration: 2 years, oral, drinking water, histopathology: nonneoplastic), 154 mg/kg-day.
